PMC12396409, “Screening and hit evaluation of a microbial metabolite library against the pathogenic Plasmodium falciparum and Toxoplasma gondii parasites” (International Journal for Parasitology: Drugs and Drug …, 2025)
Like-named read-outs stand apart in the source and are kept apart here. Where a SMILES comes first, the peptide text is derived from it. [ ]: non-standard residue; d: D form. GABA = NCCCC(=O)O

How the values were obtained:
[1] = tested on: P. falciparum 3D7 parasites; assay: P. falciparum growth inhibition assay, 2-cycle (120 h treatment), delayed-death screen and dose-response; type: cell-based, Plasmodium falciparum; details: 120 h; for activity at 2 µg/mL: Plasmodium falciparum
[2] = tested on: P. falciparum 3D7 parasites; assay: P. falciparum growth inhibition assay, 1-cycle (72 h treatment), SYBR DNA staining (library screen at 2 μg/mL and dose-response); type: cell-based, Plasmodium falciparum; details: 72 h; for activity at 2 µg/mL: Plasmodium falciparum
[3] = tested on: T. gondii RH strain (RH-Tub-eYFP) tachyzoites; assay: microbe, parasite or virus in culture; type: cell-based, Toxoplasma gondii; details: 72 h; for percent parasite growth at 2 µg/mL: Toxoplasma gondii
[4] = P. falciparum, screen at 2 μg/mL, replicate 1
[5] = P. falciparum, screen at 2 μg/mL, replicate 2
[6] = T. gondii, screen at 2 μg/mL, replicate 1
[7] = T. gondii, screen at 2 μg/mL, replicate 2
[8] = 3D7, 120 h, library screen at 2 μg/mL, % growth, replicate 1, read-out: Pf_120h_%Growth_Rep1
[9] = 3D7, 120 h, library screen at 2 μg/mL, % growth, replicate 2, read-out: Pf_120h_%Growth_Rep2
[10] = 3D7, 72 h, library screen at 2 μg/mL, % growth, replicate 1, read-out: Pf_72h_%Growth_Rep1
[11] = 3D7, 72 h, library screen at 2 μg/mL, % growth, replicate 2, read-out: Pf_72h_%Growth_Rep2
[12] = library screen at 2 μg/mL, % growth, replicate 1, read-out: Tg_72h_%Growth_Rep1
[13] = library screen at 2 μg/mL, % growth, replicate 2, read-out: Tg_72h_%Growth_Rep2
[14] = library screen at 2 μg/mL, % growth, replicate 1
[15] = library screen at 2 μg/mL, % growth, replicate 2

SMILES: CC(C)[C@H]1NC(=O)[C@H](Cc2ccccc2)NC(=O)[C@@H](C(C)C)NC(=O)[C@@H](C)NC(=O)CCCNC(=O)[C@@H](Cc2c[nH]c3ccccc23)NC(=O)[C@@H](C)NC1=O [Unguisin A] (cyclo(F[dV][dA][dW][GABA][dA][dV]))
- Pf_120h_%Growth_Rep1 [1, 4]: 110.43%
- Pf_120h_%Growth_Rep2 [1, 5]: -17.05%
- Pf_72h_%Growth_Rep1 [2, 4]: 89.83%
- Pf_72h_%Growth_Rep2 [2, 5]: 117.62%
- Tg_72h_%Growth_Rep1 [3, 6]: 121.37%
- Tg_72h_%Growth_Rep2 [3, 7]: 69.01%

SMILES: CC(C)C[C@@H]1NC(=O)[C@H](Cc2c[nH]c3ccccc23)NC1=O [Cyclo(L-Leu-L-Trp)]
- Pf_120h_%Growth_Rep1 [1, 4]: 80.44%
- Pf_120h_%Growth_Rep2 [1, 5]: 87.76%
- Pf_72h_%Growth_Rep1 [2, 4]: 84.12%
- Pf_72h_%Growth_Rep2 [2, 5]: 86.68%
- Tg_72h_%Growth_Rep1 [3, 6]: 106.88%
- Tg_72h_%Growth_Rep2 [3, 7]: 106.90%

SMILES: COC(=O)[C@]1(Cc2ccc(O)c(CC=C(C)C)c2)OC(=O)C(O)=C1c1ccc(O)cc1 [Butyrolactone I]
- activity at 2 µg/mL ([1]; 3D7, 120 h, P. falciparum, screen at 2 μg/mL, replicate 1, read-out: Pf_120h_%Growth_Rep1): 147%
- activity at 2 µg/mL ([1]; 3D7, 120 h, P. falciparum, screen at 2 μg/mL, replicate 2, read-out: Pf_120h_%Growth_Rep2): 92.6%
- activity at 2 µg/mL ([2]; 3D7, 72 h, P. falciparum, screen at 2 μg/mL, replicate 1, read-out: Pf_72h_%Growth_Rep1): 72.4%
- activity at 2 µg/mL ([2]; 3D7, 72 h, P. falciparum, screen at 2 μg/mL, replicate 2, read-out: Pf_72h_%Growth_Rep2): 88.5%
- percent parasite growth at 2 µg/mL ([3]; T. gondii, screen at 2 μg/mL, replicate 1, read-out: Tg_72h_%Growth_Rep1): 85.8%
- percent parasite growth at 2 µg/mL ([3]; T. gondii, screen at 2 μg/mL, replicate 2, read-out: Tg_72h_%Growth_Rep2): 88.7%

SMILES: CC1=C[C@@H]2/C=C(\C)CC[C@H](O)[C@H](O)/C=C/C(=O)[C@]23C(=O)N[C@@H](CC(C)C)[C@@H]3[C@@H]1C [Aspochalasin D]
- activity at 2 µg/mL [1, 8]: 74.4%
- activity at 2 µg/mL [1, 9]: 80.7%
- activity at 2 µg/mL [2, 10]: 71.8%
- activity at 2 µg/mL [2, 11]: 78.2%
- percent parasite growth at 2 µg/mL [3, 12]: 5.85%
- percent parasite growth at 2 µg/mL [3, 13]: 2.85%

SMILES: C=C(C)[C@@H]1CC[C@]2(C(=O)OC)CC[C@]3(C)[C@H](CC[C@@H]4[C@@]5(C)CC[C@H](O)C(C)(C)[C@@H]5CC[C@]43C)[C@@H]12 [Betulinate, Methyl]
- Pf_120h_%Growth_Rep1 [1, 14]: 150.46%
- Pf_120h_%Growth_Rep2 [1, 15]: 92.78%
- Pf_72h_%Growth_Rep1 [2, 14]: 96.31%
- Pf_72h_%Growth_Rep2 [2, 15]: 86.01%
- Tg_72h_%Growth_Rep1 [3, 14]: 84.95%
- Tg_72h_%Growth_Rep2 [3, 15]: 84.36%

SMILES: CC(C)=C[C@H]1C[C@H](C)[C@]2(CC[C@]3(C)C[C@@H]4C(C)=CC(=O)[C@H]4/C(C=O)=C\C[C@H]32)O1 [Anhydroepiophiobolin A]
- Pf_120h_%Growth_Rep1 [1, 14]: -5.12%
- Pf_120h_%Growth_Rep2 [1, 15]: 6.51%
- Pf_72h_%Growth_Rep1 [2, 14]: 2.50%
- Pf_72h_%Growth_Rep2 [2, 15]: 3.83%
- Tg_72h_%Growth_Rep1 [3, 14]: 120.33%
- Tg_72h_%Growth_Rep2 [3, 15]: 104.77%

SMILES: CC(=O)OCc1c(O)c2c(c3c1OC(=O)c1c(C)cc(O)c(C=O)c1O3)C(O)OC2=O (stereo not drawn) [Galbinic acid]
- Pf_120h_%Growth_Rep1 [1, 14]: 99.54%
- Pf_120h_%Growth_Rep2 [1, 15]: 110.27%
- Pf_72h_%Growth_Rep1 [2, 14]: 88.09%
- Pf_72h_%Growth_Rep2 [2, 15]: 110.75%
- Tg_72h_%Growth_Rep1 [3, 14]: 125.30%
- Tg_72h_%Growth_Rep2 [3, 15]: 103.13%

SMILES: C/C=C(/C)c1cc(O)c(C)c2c1Oc1c(C)c(O)cc(/C(C)=C\C)c1C(=O)O2 [Folipastatin]
- Pf_120h_%Growth_Rep1 [1, 14]: 81.33%
- Pf_120h_%Growth_Rep2 [1, 15]: 105.49%
- Pf_72h_%Growth_Rep1 [2, 14]: 84.22%
- Pf_72h_%Growth_Rep2 [2, 15]: 87.89%
- Tg_72h_%Growth_Rep1 [3, 14]: 114.14%
- Tg_72h_%Growth_Rep2 [3, 15]: 93.99%

SMILES: O=[N+]([O-])c1ncc[nH]1 [Azomycin]
- activity at 2 µg/mL [1, 8]: 147%
- activity at 2 µg/mL [1, 9]: 91.9%
- activity at 2 µg/mL [2, 10]: 83.2%
- activity at 2 µg/mL [2, 11]: 88%
- percent parasite growth at 2 µg/mL [3, 12]: 77.1%
- percent parasite growth at 2 µg/mL [3, 13]: 71.1%

SMILES: CC(=O)OCC1=C[C@@H]2OC(=O)C3=CO[C@@H](O[C@@H]4O[C@H](CO)[C@@H](O)[C@H](O)[C@H]4O)[C@H]1[C@@H]32 [Asperuloside]
- activity at 2 µg/mL ([1]; 3D7, library screen at 2 μg/mL, % growth, replicate 1, read-out: Pf_120h_%Growth_Rep1): 94.8%
- activity at 2 µg/mL ([1]; 3D7, library screen at 2 μg/mL, % growth, replicate 2, read-out: Pf_120h_%Growth_Rep2): 94.6%
- activity at 2 µg/mL ([2]; 3D7, library screen at 2 μg/mL, % growth, replicate 1, read-out: Pf_72h_%Growth_Rep1): 86.2%
- activity at 2 µg/mL ([2]; 3D7, library screen at 2 μg/mL, % growth, replicate 2, read-out: Pf_72h_%Growth_Rep2): 89.3%
- percent parasite growth at 2 µg/mL [3, 12]: 123%
- percent parasite growth at 2 µg/mL [3, 13]: 97.1%
